{
  "source": "PubChem BioAssay AID2060884",
  "about": "(Molecular Pharmacology Branch, DTP, NCI, 2025)",
  "tested_on": "NCI-H929 complex spheroids, viability % test/control",
  "test": "Anticancer human tumor NCI-H929 cell line growth inhibition [RAS];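 also: compound exposure lasted seven days before viability was read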;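 as to viability, T/C: 100% = DMSO vehicle control viability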",
  "conditions": "for viability, T/C: stronger effect = lower value",
  "how_it_was_run": "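Agents were tested in combination matrices in half-log decrements from a top concentration at or near clinical Cmax (10 microM if undetermined). Targets were multi-cell spheroids of tumour lines plus HUVEC and MSC stromal cells.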",
  "note": "pIC50: −log10 of the molar value. Several values for one entry are separate records, joined by “and”; a condition that tells them apart may be missing. Equal entries are not always repeated.",
  "data": [
    {"smiles": "C=CC(=O)N1CCN(c2nc(OCC3CCCN3C)nc3c(F)c(-c4nc(N)cc(C)c4C(F)(F)F)c(Cl)cc23)C(C)C1", "note": "(stereo not given)", "values": [
      {"measurement": "viability, T/C", "setting": "compound 0.00316 µM", "value": "102% [middle of 12 runs]"},
      {"measurement": "viability, T/C", "setting": "compound 0.01 µM, compound 0.0316 µM", "value": 103, "unit": "%"},
      {"measurement": "viability, T/C", "setting": "compound 0.01 µM, compound 0.1 µM", "value": 105, "unit": "%"},
      {"measurement": "viability, T/C", "setting": "compound 0.01 µM, compound 0.316 µM", "value": 101, "unit": "%"},
      {"measurement": "viability, T/C", "setting": "compound 0.01 µM, compound 1 µM", "value": 106, "unit": "%"},
      {"measurement": "viability, T/C", "setting": "compound 0.01 µM", "value": "101% [middle of 13 runs]"},
      {"measurement": "viability, T/C", "setting": "compound 0.0316 µM, compound 0.00316 µM", "value": 94.3, "unit": "%"},
      {"measurement": "viability, T/C", "setting": "compound 0.0316 µM, compound 0.01 µM", "value": 101, "unit": "%"},
      {"measurement": "viability, T/C", "setting": "compound 0.0316 µM, compound 0.1 µM", "value": 101, "unit": "%"},
      {"measurement": "viability, T/C", "setting": "compound 0.0316 µM, compound 0.316 µM", "value": 108, "unit": "%"},
      {"measurement": "viability, T/C", "setting": "compound 0.0316 µM, compound 1 µM", "value": 109, "unit": "%"},
      {"measurement": "viability, T/C", "setting": "compound 0.0316 µM", "value": "103% [middle of 13 runs]"},
      {"measurement": "viability, T/C", "setting": "compound 0.1 µM, compound 0.00316 µM", "value": 98.2, "unit": "%"},
      {"measurement": "viability, T/C", "setting": "compound 0.1 µM, compound 0.01 µM", "value": 104, "unit": "%"},
      {"measurement": "viability, T/C", "setting": "compound 0.1 µM, compound 0.0316 µM", "value": 99.5, "unit": "%"},
      {"measurement": "viability, T/C", "setting": "compound 0.1 µM, compound 0.316 µM", "value": 109, "unit": "%"},
      {"measurement": "viability, T/C", "setting": "compound 0.1 µM, compound 1 µM", "value": 111, "unit": "%"},
      {"measurement": "viability, T/C", "setting": "compound 0.1 µM", "value": "100% [middle of 12 runs]"},
      {"measurement": "viability, T/C", "setting": "compound 0.316 µM, compound 0.00316 µM", "value": 102, "unit": "%"},
      {"measurement": "viability, T/C", "setting": "compound 0.316 µM, compound 0.01 µM", "value": 105, "unit": "%"},
      {"measurement": "viability, T/C", "setting": "compound 0.316 µM, compound 0.0316 µM", "value": 106, "unit": "%"},
      {"measurement": "viability, T/C", "setting": "compound 0.316 µM, compound 0.1 µM", "value": 102, "unit": "%"},
      {"measurement": "viability, T/C", "setting": "compound 0.316 µM, compound 1 µM", "value": 113, "unit": "%"},
      {"measurement": "viability, T/C", "setting": "compound 0.316 µM", "value": "100% [middle of 13 runs]"},
      {"measurement": "viability, T/C", "setting": "compound 1 µM, compound 0.00316 µM", "value": 107, "unit": "%"},
      {"measurement": "viability, T/C", "setting": "compound 1 µM, compound 0.01 µM", "value": 104, "unit": "%"},
      {"measurement": "viability, T/C", "setting": "compound 1 µM, compound 0.0316 µM", "value": 105, "unit": "%"},
      {"measurement": "viability, T/C", "setting": "compound 1 µM, compound 0.1 µM", "value": 109, "unit": "%"},
      {"measurement": "viability, T/C", "setting": "compound 1 µM, compound 0.316 µM", "value": 110, "unit": "%"},
      {"measurement": "viability, T/C", "setting": "compound 1 µM", "value": "104% [middle of 13 runs]"},
      {"measurement": "pIC50", "setting": "compound alone, run of 09/09/2024", "value": "< 6.00"},
      {"measurement": "pIC50", "setting": "curve of compound", "value": "< 6.00"}
    ]},
    {"smiles": "CCN1CCN(Cc2ccc(Nc3ncc(F)c(-c4cc(F)c5nc(C)n(C(C)C)c5c4)n3)nc2)CC1", "values": [
      {"measurement": "viability, T/C", "setting": "compound 0.00316 µM", "value": "106% [middle of 4 runs]"},
      {"measurement": "viability, T/C", "setting": "compound 0.01 µM", "value": "101% (2×) and 100% and 102%"},
      {"measurement": "viability, T/C", "setting": "compound 0.0316 µM", "value": "108% [middle of 4 runs]"},
      {"measurement": "viability, T/C", "setting": "compound 0.1 µM", "value": "107% (2×) and 98.7% and 108%"},
      {"measurement": "viability, T/C", "setting": "compound 0.316 µM", "value": "117% (2×) and 102% and 115%"},
      {"measurement": "pIC50", "setting": "curve of compound", "value": "< 6.00 and 6.11 and 6.16"}
    ]},
    {"smiles": "CC(C)NCC(C(=O)N1CCN(c2ncnc3c2C(C)CC3O)CC1)c1ccc(Cl)cc1", "note": "(stereo not given) + C=CC(=O)N1CCN(c2nc(OCC3CCCN3C)nc3c(F)c(-c4nc(N)cc(C)c4C(F)(F)F)c(Cl)cc23)C(C)C1", "values": [
      {"measurement": "pIC50", "setting": "curve of first compound, second compound 0.00316 µM", "value": 5.55},
      {"measurement": "pIC50", "setting": "curve of first compound, second compound 0.01 µM", "value": 5.51},
      {"measurement": "pIC50", "setting": "curve of first compound, second compound 0.0316 µM", "value": 5.33},
      {"measurement": "pIC50", "setting": "curve of first compound, second compound 0.1 µM", "value": 5.39},
      {"measurement": "pIC50", "setting": "curve of first compound, second compound 0.316 µM", "value": 5.60},
      {"measurement": "pIC50", "setting": "curve of first compound, second compound 1 µM", "value": 5.44},
      {"measurement": "viability, T/C", "setting": "second compound 0.00316 µM, first compound 0.0316 µM", "value": 102, "unit": "%"},
      {"measurement": "viability, T/C", "setting": "second compound 0.00316 µM, first compound 0.1 µM", "value": 101, "unit": "%"},
      {"measurement": "viability, T/C", "setting": "second compound 0.00316 µM, first compound 0.316 µM", "value": 108, "unit": "%"},
      {"measurement": "viability, T/C", "setting": "second compound 0.00316 µM, first compound 1 µM", "value": 101, "unit": "%"},
      {"measurement": "viability, T/C", "setting": "second compound 0.00316 µM, first compound 3.16 µM", "value": 44.4, "unit": "%"},
      {"measurement": "viability, T/C", "setting": "second compound 0.00316 µM, first compound 10 µM", "value": 12.1, "unit": "%"},
      {"measurement": "viability, T/C", "setting": "second compound 0.01 µM, first compound 0.0316 µM", "value": 103, "unit": "%"},
      {"measurement": "viability, T/C", "setting": "second compound 0.01 µM, first compound 0.1 µM", "value": 103, "unit": "%"},
      {"measurement": "viability, T/C", "setting": "second compound 0.01 µM, first compound 0.316 µM", "value": 105, "unit": "%"},
      {"measurement": "viability, T/C", "setting": "second compound 0.01 µM, first compound 1 µM", "value": 104, "unit": "%"},
      {"measurement": "viability, T/C", "setting": "second compound 0.01 µM, first compound 3.16 µM", "value": 48.5, "unit": "%"},
      {"measurement": "viability, T/C", "setting": "second compound 0.01 µM, first compound 10 µM", "value": 15.1, "unit": "%"},
      {"measurement": "viability, T/C", "setting": "second compound 0.0316 µM, first compound 0.0316 µM", "value": 97.5, "unit": "%"},
      {"measurement": "viability, T/C", "setting": "second compound 0.0316 µM, first compound 0.1 µM", "value": 103, "unit": "%"},
      {"measurement": "viability, T/C", "setting": "second compound 0.0316 µM, first compound 0.316 µM", "value": 108, "unit": "%"},
      {"measurement": "viability, T/C", "setting": "second compound 0.0316 µM, first compound 1 µM", "value": 103, "unit": "%"},
      {"measurement": "viability, T/C", "setting": "second compound 0.0316 µM, first compound 3.16 µM", "value": 67.6, "unit": "%"},
      {"measurement": "viability, T/C", "setting": "second compound 0.0316 µM, first compound 10 µM", "value": 16.1, "unit": "%"},
      {"measurement": "viability, T/C", "setting": "second compound 0.1 µM, first compound 0.0316 µM", "value": 101, "unit": "%"},
      {"measurement": "viability, T/C", "setting": "second compound 0.1 µM, first compound 0.1 µM", "value": 105, "unit": "%"},
      {"measurement": "viability, T/C", "setting": "second compound 0.1 µM, first compound 0.316 µM", "value": 110, "unit": "%"},
      {"measurement": "viability, T/C", "setting": "second compound 0.1 µM, first compound 1 µM", "value": 108, "unit": "%"},
      {"measurement": "viability, T/C", "setting": "second compound 0.1 µM, first compound 3.16 µM", "value": 60, "unit": "%"},
      {"measurement": "viability, T/C", "setting": "second compound 0.1 µM, first compound 10 µM", "value": 15.2, "unit": "%"},
      {"measurement": "viability, T/C", "setting": "second compound 0.316 µM, first compound 0.0316 µM", "value": 102, "unit": "%"},
      {"measurement": "viability, T/C", "setting": "second compound 0.316 µM, first compound 0.1 µM", "value": 105, "unit": "%"},
      {"measurement": "viability, T/C", "setting": "second compound 0.316 µM, first compound 0.316 µM", "value": 109, "unit": "%"},
      {"measurement": "viability, T/C", "setting": "second compound 0.316 µM, first compound 1 µM", "value": 106, "unit": "%"},
      {"measurement": "viability, T/C", "setting": "second compound 0.316 µM, first compound 3.16 µM", "value": 35.4, "unit": "%"},
      {"measurement": "viability, T/C", "setting": "second compound 0.316 µM, first compound 10 µM", "value": 15.4, "unit": "%"},
      {"measurement": "viability, T/C", "setting": "second compound 1 µM, first compound 0.0316 µM", "value": 114, "unit": "%"},
      {"measurement": "viability, T/C", "setting": "second compound 1 µM, first compound 0.1 µM", "value": 115, "unit": "%"},
      {"measurement": "viability, T/C", "setting": "second compound 1 µM, first compound 0.316 µM", "value": 108, "unit": "%"},
      {"measurement": "viability, T/C", "setting": "second compound 1 µM, first compound 1 µM", "value": 108, "unit": "%"},
      {"measurement": "viability, T/C", "setting": "second compound 1 µM, first compound 3.16 µM", "value": 56.3, "unit": "%"},
      {"measurement": "viability, T/C", "setting": "second compound 1 µM, first compound 10 µM", "value": 6.44, "unit": "%"}
    ]}
  ]
}
